{
  "source": "patent US20100113494A1",
  "about": "“13,13a-Dihydroberberine Derivatives For Use In Pharmaceutical Compositions” (SHANGHAI INSTITUTE OF MATERIA MEDICA, CHINESE ACADEMY OF …, priority 2006, published 2010)",
  "key": {"[1]": {"system": "C57BL/6J mice fed by high-fat diet", "assay": "free fatty acid and triglyceride in blood plasma of high-fat diet obese mice", "assay_type": "in vivo", "details": "100 mg/kg/day for 2 weeks", "experimental": "(§1) Ten mice per group were used to perform the efficacy study of the compounds. Dihydroberberine derivative 19 or its sulfate salt was mixed into the high-fat diet, and administered at a dose of 100 mg/kg/day for 2 weeks. After the mice were starved overnight, basal blood sugar value (0 min) was measured by taking blood from tail vein. Then the mice were injected glucose intraperitoneally at a dose of 2 g/kg according to the body weight of the mice in control group which were fed by normal diet followed by measuring blood sugar value at 15, 30, 45, 60, 90 and 120 min respectively and calculating the area under curve (AUC). The body weight and visceral fat of the mice were weighted, and the contents of fatty acid and triglyceride in the blood plasma of the mice were determined.\n(§2) In FIGS. 2-4, CH-con means the normal mouse, HF-con refers to the obese mouse, HF-BBR19 is the obese mouse treated with dihydroberberine derivative 19 for 2 weeks, and HF-BBR19Y is the obese mouse treated with the sulfate salt of dihydroberberine derivative 19 for 2 weeks."}, "[2]": {"system": "C57BL/6J mice fed by high-fat diet", "assay": "body weight and visceral fat of high-fat diet obese mice", "assay_type": "in vivo", "details": "100 mg/kg/day for 2 weeks", "experimental": "as §1, §2\nThus they may have a potential effect on treating obesity."}, "[3]": {"system": "C57BL/6J mice fed by high-fat diet", "assay": "intraperitoneal glucose tolerance test (ipGTT) in high-fat diet obese mice", "assay_type": "in vivo", "details": "100 mg/kg/day in high-fat diet for 2 weeks, glucose 2 g/kg intraperitoneally", "experimental": "as §1, §2\nThe mice which had been treated with dihydroberberine derivative 19 or its sulfate salt for 2 weeks and the mice in control group were intraperitoneally injected glucose at 2 g/kg after being starved overnight. […]"}, "[4]": {"system": "C57BL/6J mice fed by high-fat diet", "assay": "mouse models with insulin resistance and obesity induced by a high-fat diet (experimental conclusion)", "assay_type": "in vivo", "details": "high-fat diet mouse model", "experimental": "as §1"}, "L6 muscle cells [5]": {"system": "L6 muscle cells", "assay": "glucose absorption model test in L6 muscle cells", "assay_type": "cell-based", "experimental": "(§3) In our study, the glucose transport rate in L6 muscle cells increased by about 3 times with 10 μM berberine hydrochloride. In a further glucose absorption model test in L6 muscle cells, the glucose absorption in L6 muscle cells increased by more than 2 times with […] berberine hydrochloride in 20 mM glucose medium. […] The improvement in glucose absorption induced by insulin was inhibited obviously, while that induced by berberine was not affected after the treatment with wortmannin, a specific inhibitor of insulin signaling pathway."}, "L6 muscle cells [6]": {"system": "L6 muscle cells", "assay": "model test on the glucose transport in L6 muscle cells", "assay_type": "cell-based", "details": "10 μM", "experimental": "So, berberine belongs to non-insulin dependent glucose absorption enhancer in the peripheral tissues of the human body. […] In a model test on the glucose transport in L6 muscle cells, the transport rate of 3-methyl glucose in L6 muscle cells increased by about 0.5 times with 400 μM metformin hydrochloride. Berberine hydrochloride could achieve the same effect with less dosage than metformin in a model test on the glucose transport in L6 muscle cells in vitro.\nas §3"}, "diabetic mice": {"system": "diabetic mice", "details": "Liu 1996; cited from earlier work"}, "HepG2 cells": {"system": "HepG2 cells", "details": "5-100 μmol of berberine; cited from earlier work"}, "p38 MAPK kinase": {"system": "p38 MAPK kinase", "assay": "immunoblotting assay of L6 muscle cells, p38 MAPK", "assay_type": "cell-based"}, "βTC3 cells": {"system": "βTC3 cells", "details": "cited from earlier work"}, "AMPK": {"system": "AMPK", "assay": "immunoblotting assay of L6 muscle cells, AMPK", "assay_type": "cell-based"}, "[7]": {"system": "insulin receptor genes and peroxisome proliferator activated receptor genes", "details": "Jiang, CN01121906.8; cited from earlier work"}, "AMP:ATP ratio in cells": {"system": "AMP:ATP ratio in cells", "assay": "AMP:ATP ratio in cells by high performance liquid chromatography", "assay_type": "cell-based", "details": "HPLC"}, "[8]": {"system": "insulin signaling pathway", "assay": "immunoblotting assay of L6 muscle cells, insulin signaling pathway", "assay_type": "cell-based"}, "[9]": {"system": "normal mice and alloxan-induced diabetic mice", "details": "Chen, Xie 1986, cited from earlier work"}, "type 2 diabetic patients": {"system": "type 2 diabetic patients", "details": "cited from earlier work"}, "L6 muscle cells [10]": {"system": "L6 muscle cells", "details": "400 μM; cited from earlier work"}},
  "note": "Structures can show the parent of a compound that is named as a salt. Where two headings read alike, the source gives them in different places.",
  "data": [
    {"smiles": "COc1ccc2c(c1OC)CN1CCc3cc4c(cc3C1=C2)OCO4", "note": "[Compound 19]", "values": [
      {"measurement": "content of free fatty acid (NEFA) in blood plasma", "setting": "[1]; HF-Con 0.76±0.03", "value": "0.6 ± 0.05", "unit": "mmol/L"},
      {"measurement": "content of triglyceride TG in blood plasma", "setting": "[1]; HF-Con 1.20±0.05", "value": "0.86 ± 0.08", "unit": "mmol/L"},
      {"measurement": "increase in body weight versus control group", "setting": "[2]", "value": "significantly less"},
      {"measurement": "ratio of intra-abdominal (visceral) fat to body weight versus control group", "setting": "[2]", "value": "lowered significantly"},
      {"measurement": "glucose tolerance (ipGTT, area under curve)", "setting": "[3]", "value": "significantly improved"},
      {"measurement": "improving insulin resistance", "setting": "[4]", "value": "significant effects"},
      {"measurement": "relieving fatty liver", "setting": "[4]", "value": "significant effects"}
    ]},
    {"smiles": "COc1ccc2cc3[n+](cc2c1OC)CCc1cc2c(cc1-3)OCO2", "note": "[berberine hydrochloride]", "values": [
      {"measurement": "increase of glucose absorption in L6 muscle cells", "setting": "L6 muscle cells [5]; 5 berberine hydrochloride in 20 mM glucose medium", "value": "more than 2 times"},
      {"measurement": "increase of glucose transport rate in L6 muscle cells", "setting": "L6 muscle cells [6]", "value": "about 3 times"}
    ]},
    {"smiles": "COc1ccc2cc3[n+](cc2c1OC)CCc1cc2c(cc1-3)OCO2", "note": "[berberine, Berberine]", "values": [
      {"measurement": "effect on reversing diabetic renal failure", "setting": "diabetic mice", "value": "has a significant effect on reversing diabetic renal failure and"},
      {"measurement": "increase of glucose consumption in HepG2 cells", "setting": "HepG2 cells", "value": "32-60%"},
      {"measurement": "activity of p38 MAPK kinase", "setting": "p38 MAPK kinase", "value": "significantly reinforced"},
      {"measurement": "glucose absorption induced by berberine after treatment with AMPK and p38 MAPK specific inhibitors", "setting": "L6 muscle cells [5]; Compound C and SB202190", "value": "obviously lowered"},
      {"measurement": "glucose absorption induced by berberine after treatment with wortmannin", "setting": "L6 muscle cells [5]; wortmannin, specific inhibitor of insulin signaling pathway", "value": "not affected"},
      {"measurement": "stimulation of βTC3 cells to secrete insulin", "setting": "βTC3 cells", "value": "did not stimulate"},
      {"measurement": "activity of AMPK", "setting": "AMPK", "value": "significantly reinforced"},
      {"measurement": "expressions of insulin receptor genes and peroxisome proliferator activated receptor genes", "setting": "[7]", "value": "Berberine can interact with insulin receptors and increase"},
      {"measurement": "AMP:ATP ratio in cells", "setting": "AMP:ATP ratio in cells", "value": "increased significantly"},
      {"measurement": "effect on insulin signaling pathway", "setting": "[8]", "value": "little effect"},
      {"measurement": "effect on lowering blood glucose", "setting": "[9]; dose of 40 mg/kg", "value": "atherosclerosis. It had a significant effect on lowering blood"},
      {"measurement": "lowering blood glucose levels", "setting": "[9]; normal mice and alloxan-induced diabetic mice", "value": "biguanides. It can lower blood glucose levels of both normal mice"},
      {"measurement": "fasting blood glucose levels of all patients", "setting": "type 2 diabetic patients; 20 cases not improved by D860, glibenclamide etc., 3 months, Zhang 1999", "value": "levels of all patients were lowered to normal levels 3 months"},
      {"measurement": "side effects", "setting": "type 2 diabetic patients; 20 cases, Zhang 1999", "value": "dependent on dose, and no side effects such as hypoglycemia"},
      {"measurement": "total efficiency", "setting": "type 2 diabetic patients; 57 cases, berberine added after secondary failure of sulfonylurea alone or with metformin, 1 month, Wang 2002", "value": "efficiency was 81%."},
      {"measurement": "adverse effect during the treatment", "setting": "type 2 diabetic patients; 60 cases, 1-3 months, Ni 1988", "value": "hemogram during the treatment and no obvious adverse effect"},
      {"measurement": "average decrease of fasting blood glucose", "setting": "type 2 diabetic patients; 60 cases, 1-3 months, Ni 1988", "value": "that the fasting blood glucose decreased averagely by 5.1 mmol/L"},
      {"measurement": "toxic and/or adverse effects observed", "setting": "type 2 diabetic patients; 60 cases, Hu 1995", "value": "patients with overweight recovered their normal weights. No"},
      {"measurement": "blood serum insulin levels after the treatment", "setting": "type 2 diabetic patients; 68 cases, Shi 2000", "value": "The blood serum insulin levels of the patients increased"},
      {"measurement": "total efficiency", "setting": "type 2 diabetic patients; 68 cases, Shi 2000", "value": "significantly, and the total efficiency was 86.8%. The action"},
      {"measurement": "time to disappearance of polyuria, polydipsia and polyphagia for all patients", "setting": "type 2 diabetic patients; 75 cases, Yu 1994", "value": "within two weeks after administration of berberine accompanying"},
      {"measurement": "blood glucose levels, observed clinically", "setting": "type 2 diabetic patients; Juan WANG 2004", "value": "decreased"},
      {"measurement": "blood serum insulin levels, observed clinically", "setting": "type 2 diabetic patients; Juan WANG 2004", "value": "increased"},
      {"measurement": "curative effect (blood glucose, blood serum insulin) compared with Diamicron group", "setting": "type 2 diabetic patients; non-insulin dependent diabetic patients, 30 persons per group, 4 weeks, Yu, Yan 1995", "value": "showed that the two groups had similar curative effects and no"},
      {"measurement": "patients observed with adverse effects or hypoglycemia", "setting": "type 2 diabetic patients; observed for 4 years, regardless of dose, Yu 1994", "value": "treated with berberine and observed for 4 years, and none of them"}
    ]},
    {"smiles": "CN(C)C(=N)N=C(N)N", "note": "[metformin hydrochloride]", "values": [
      {"measurement": "increase of transport rate of 3-methyl glucose in L6 muscle cells", "setting": "L6 muscle cells [10]", "value": "about 0.5 times"}
    ]}
  ]
}
